# Values quoted from earlier work, collected in publication PMC9516332 (Frontiers in Oncology, 2022).
# Where two headings read alike, the source gives them in different places.
# Tests used:
# [1] = molecular target: panel of 255 wild-type kinases (Homo sapiens, UniProt P45983); settings: cited from earlier work
# [2] = molecular target: panel of 255 wild-type kinases (Homo sapiens, UniProt P51617); settings: kinase IRAK1; 1 µmol/L single concentration; ref DOI: 10.1371/journal.pone.0092146; cited from earlier work
# [3] = molecular target: T1, panel of 255 wild-type kinases (Homo sapiens, UniProt Q02156); settings: kinase PKCε; 1 µmol/L single concentration; ref DOI: 10.1371/journal.pone.0092146; cited from earlier work
# T1 sequence (Q02156 1-737): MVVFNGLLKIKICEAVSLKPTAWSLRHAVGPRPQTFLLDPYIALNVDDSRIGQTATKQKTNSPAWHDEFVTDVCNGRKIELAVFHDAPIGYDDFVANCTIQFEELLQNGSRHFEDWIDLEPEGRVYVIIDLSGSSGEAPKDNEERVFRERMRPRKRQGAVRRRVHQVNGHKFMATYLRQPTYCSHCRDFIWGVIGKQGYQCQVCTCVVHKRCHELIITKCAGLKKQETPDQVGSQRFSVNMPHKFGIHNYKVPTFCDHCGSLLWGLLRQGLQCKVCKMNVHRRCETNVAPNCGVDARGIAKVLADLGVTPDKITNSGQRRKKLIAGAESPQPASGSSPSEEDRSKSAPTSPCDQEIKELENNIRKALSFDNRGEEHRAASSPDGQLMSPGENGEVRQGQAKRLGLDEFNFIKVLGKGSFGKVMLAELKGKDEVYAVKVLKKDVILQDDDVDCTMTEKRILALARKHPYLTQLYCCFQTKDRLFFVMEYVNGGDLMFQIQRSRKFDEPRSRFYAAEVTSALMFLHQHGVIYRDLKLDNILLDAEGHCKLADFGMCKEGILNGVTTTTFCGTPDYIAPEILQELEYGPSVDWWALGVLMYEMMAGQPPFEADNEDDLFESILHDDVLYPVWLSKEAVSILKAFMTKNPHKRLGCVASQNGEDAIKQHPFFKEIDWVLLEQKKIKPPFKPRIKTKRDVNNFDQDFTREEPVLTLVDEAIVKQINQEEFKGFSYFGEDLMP
# [4] = molecular target: T2, panel of 255 wild-type kinases (Homo sapiens, UniProt Q05513); settings: kinase PKCζ; 1 µmol/L single concentration; ref DOI: 10.1371/journal.pone.0092146; cited from earlier work
# T2 sequence (Q05513 1-592): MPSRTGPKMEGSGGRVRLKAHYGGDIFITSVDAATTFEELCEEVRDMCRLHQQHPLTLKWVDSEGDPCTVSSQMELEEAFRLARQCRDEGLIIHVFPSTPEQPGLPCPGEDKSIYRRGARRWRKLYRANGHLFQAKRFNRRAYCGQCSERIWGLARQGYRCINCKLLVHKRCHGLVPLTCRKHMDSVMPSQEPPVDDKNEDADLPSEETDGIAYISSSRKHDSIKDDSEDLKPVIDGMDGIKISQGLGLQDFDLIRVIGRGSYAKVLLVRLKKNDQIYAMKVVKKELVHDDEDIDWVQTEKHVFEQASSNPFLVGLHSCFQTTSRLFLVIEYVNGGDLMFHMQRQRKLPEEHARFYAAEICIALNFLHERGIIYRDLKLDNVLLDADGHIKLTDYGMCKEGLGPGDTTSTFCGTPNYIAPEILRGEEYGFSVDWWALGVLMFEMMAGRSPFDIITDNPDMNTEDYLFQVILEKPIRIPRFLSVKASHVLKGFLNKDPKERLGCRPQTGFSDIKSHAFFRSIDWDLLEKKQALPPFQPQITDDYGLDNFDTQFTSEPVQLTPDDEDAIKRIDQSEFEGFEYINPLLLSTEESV
# [5] = molecular target: panel of 255 wild-type kinases (Homo sapiens, UniProt Q9P289); settings: MST4; 1 µmol/L single concentration; ref DOI: 10.1371/journal.pone.0092146; cited from earlier work
# [6] = molecular target: T3, panel of 255 wild-type kinases (Homo sapiens, UniProt Q9UHD2); settings: kinase TBK1; 1 µmol/L single concentration; ref DOI: 10.1371/journal.pone.0092146; cited from earlier work
# T3 sequence (Q9UHD2 1-729): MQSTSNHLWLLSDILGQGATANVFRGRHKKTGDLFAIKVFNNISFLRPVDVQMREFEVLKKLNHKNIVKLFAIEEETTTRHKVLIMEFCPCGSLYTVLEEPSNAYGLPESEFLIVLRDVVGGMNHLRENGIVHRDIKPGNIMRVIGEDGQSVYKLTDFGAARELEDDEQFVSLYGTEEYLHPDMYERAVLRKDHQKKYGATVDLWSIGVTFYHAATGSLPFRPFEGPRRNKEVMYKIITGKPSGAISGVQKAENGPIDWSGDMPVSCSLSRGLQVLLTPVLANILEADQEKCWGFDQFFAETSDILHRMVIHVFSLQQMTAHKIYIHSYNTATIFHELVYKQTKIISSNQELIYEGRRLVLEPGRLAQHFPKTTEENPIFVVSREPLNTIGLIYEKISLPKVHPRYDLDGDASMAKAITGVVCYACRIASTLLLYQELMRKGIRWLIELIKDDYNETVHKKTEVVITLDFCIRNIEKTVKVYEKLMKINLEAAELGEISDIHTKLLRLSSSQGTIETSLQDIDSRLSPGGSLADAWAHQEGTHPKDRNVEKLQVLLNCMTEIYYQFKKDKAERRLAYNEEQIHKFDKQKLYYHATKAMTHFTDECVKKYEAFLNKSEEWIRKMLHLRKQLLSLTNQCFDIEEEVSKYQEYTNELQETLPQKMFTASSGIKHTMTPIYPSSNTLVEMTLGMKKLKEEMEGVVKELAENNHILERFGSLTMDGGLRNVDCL
# [7] = molecular target: T4, panel of 255 wild-type kinases (Homo sapiens, UniProt Q9UQB9); settings: AurC kinase assay; 1 µmol/L single concentration; ref DOI: 10.1371/journal.pone.0092146; cited from earlier work
# T4 sequence (Q9UQB9 1-309): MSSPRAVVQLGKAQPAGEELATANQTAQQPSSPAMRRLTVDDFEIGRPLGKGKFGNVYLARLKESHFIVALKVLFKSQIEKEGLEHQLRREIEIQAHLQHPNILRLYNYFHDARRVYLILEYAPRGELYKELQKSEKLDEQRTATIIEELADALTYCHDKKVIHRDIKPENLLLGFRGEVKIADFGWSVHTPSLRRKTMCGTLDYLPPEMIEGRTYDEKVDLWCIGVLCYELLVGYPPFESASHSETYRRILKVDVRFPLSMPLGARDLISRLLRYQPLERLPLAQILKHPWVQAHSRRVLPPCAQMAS
Structure (SMILES),"%-inhibition at 1 µmol/L, JNK1 ([1]; kinase JNK1, 1 µmol/L single concentration, ref DOI: 10.1371/journal.pone.0092146)","%-inhibition at 1 µmol/L, IRAK1 [2]","%-inhibition at 1 µmol/L, PKCε [3]","%-inhibition at 1 µmol/L, PKCζ [4]","%-inhibition, MST4 [5]","%-inhibition at 1 µmol/L, TBK1 [6]",%-inhibition AurC [7],"%-inhibition at 1 µmol/L, JNK1 [1]"
CC(=O)Nc1cccc(-n2c(=O)n(C3CC3)c(=O)c3c(Nc4ccc(I)cc4F)n(C)c(=O)c(C)c32)c1 [trametinib],-4.68%,6%,6%,4.31%,-2.23%,-4.47%,1%,–
CCCS(=O)(=O)Nc1ccc(F)c(C(=O)c2c[nH]c3ncc(-c4ccc(Cl)cc4)cc23)c1F [vemurafenib],–,10%,-8%,13%,-4.62%,-0.81%,13%,1.47%
